From patent US20260364168A1, “USE OF PROTEIN KINASE C (PKC) ACTIVATING COMPOUNDS AS AN ADJUVANT” (priority 2022, published 2026) come the findings set out here.

What is called EC50 is the concentration that produces a half-maximal response.

Like-named read-outs stand apart in the source and are kept apart here. A value given as a limit tells only on which side of the number the result lay.

In one data set the test system is human PBMC cells. Kind of data set: cytokine/chemokine gene expression (TaqMan) in human PBMC. To be noted: 4 h; for fold induction at 1 µM / fold induction at 0.01 µM / fold induction at 0.03 µM / fold induction at 0.1 µM: Homo sapiens, PBMC. For orientation: Quantitative PCR measures a nucleic acid by following its amplification.
A further data set relates to NFκB. Kind of data set: NFκB luciferase reporter gene assay in HeLa-NFκB luciferase reporter cell line. The data set is classed as cell-based. The following applies: 16 h; for EC50: 37 °C, luciferase/CTG normalized, read-out: NFκB-luc HeLa cells EC50. The procedure: The PKC activator compounds were evaluated for their effect on NFκB expression using a luciferase reporter gene expression system. (The indicators “K-101,” “K101” and “K-101A” may be used interchangeably in this disclosure and appended figures).
A HeLa-NFκB luciferase reporter cell line (Wuxi Biology) was used to assess a group of PKC activator compounds for their ability to activate NFκB-driven transcription. Two sets of cells at 20000 cells/well were plated, grown overnight, and then treated for 16 h at 37 °C with DMSO, 6 doses of each compound, or TNF-α (final concentration of 10 ng/mL, positive control) in triplicates. One set of cells was assayed for luciferase activity (Promega, Cat #E1500) and the other set was assayed to determine the number of viable cells (for cell number normalization) using CellTiter-Glo (CTG) kit (Promega, Cat #G7570) according to manufacture's procedures. Normalized data (luciferase value/CTG value) were analyzed using GraphPad Prism5 to calculate EC50 for each compound (see Table 3).

The mark [1] stands for this setting: 0.03 μM, vs DMSO, 240 min, 0.03 µM.
[2] abbreviates: 0.10 μM, vs DMSO, 240 min, 0.1 µM.

Procedure for human PBMC cells: Materials and methods: 100 million frozen human PBMC cells were purchased from Allcells (100 million/vial). The cells were thawed and recovered for one day before 1.5-1.8 million cells in 900 μl RPMI1640 with 10% heat-inactivated FBS were seeded in each well of 24-well plates. Various compounds in DMSO stock (500×) were diluted 50-fold with the same media to make 10× compound stock for most compounds. 1 μL of 5 mg/mL PMA was diluted to 99 μL of the media to make 50 μg/mL PMA. For PMA with ionomycin treatment condition, 1.5 μL of 50 μg/mL PMA and 3 μL of 500 μg/mL ionomycin were added to 145.5 μL of the media to make 10× compound stock. Sources of the compounds are as follows: PMA from Abcam (Abcam #ab120297); Ionomycin from Sigma (Sigma #I0634); Resiquimod from Sellect Chem. (Selleckchem #S8133); and LPS from Sigma (Sigma #L6143).
Each treatment condition was performed in duplicates. After treatment, mRNA was extracted from cells and samples from duplicates were combined for TaqMan gene expression assays (ThermoFisher) in triplicates. Expression of 19 genes (IL-1β, IL-2, IL-4, IL-6, IL-8, IL-10, IL-13, IL-18, IL-12p70/IL-12A, IL-12p40/IL-12B, IFN-α, IFN-γ, GM-CSF/CSF2, CCL2/MCP-1, MIP1a/CCL3, TNF-α, MX1, OAS1, ISG15) along with two housekeeping gene controls, 18S and GAPDH, was determined. Target gene expression in each sample was determined by relative quantification (RQ) using the comparative Ct (ΔΔCT) method. This method measures the Ct difference (ΔCT) between target gene and the housekeeping genes (18S & GAPDH), then compares the ΔCT values of treated samples to DMSO-treated control samples. The mean ΔCT value of the DMSO-treated control from two independent DMSO-treated control samples was used. The relative expression level of target gene was calculated by using the equation:
relative expression=2^−ΔΔCT

As for `CCOCc1nc2c(N)nc3ccccc3c2n1CC(C)(C)O` [Resiquimod, reference compound], the “IL-6 induction compared to DMSO control” value in the data set on human PBMC cells is greater than 400 fold. In addition, in the data set on human PBMC cells, the “IL-12p40 expression (in words)” value is “highly induced”. In the data set on human PBMC cells, the “ISG15 expression (in words)” value is “highly induced”. The “MX1 expression (in words)” value in the data set on human PBMC cells is on record as “highly induced”. Also, in the data set on human PBMC cells, the “OAS1 expression (in words)” value is on record as “highly induced”. The fold induction at 1 µM with human PBMC cells (read-out: CCL2 gene relative expression) was 3.73; in the data set with human PBMC cells (read-out: GM-CSF gene relative expression), 8.79; with human PBMC cells (read-out: IFN-α gene relative expression) it was 1.47; with human PBMC cells (read-out: IFNγ gene relative expression), 1.28; with human PBMC cells (read-out: IL-1β gene relative expression), 102; in the data set on human PBMC cells (read-out: IL-2 gene relative expression), 1.21. Further, the fold induction at 1 µM is 487 with human PBMC cells (read-out: IL-6 gene relative expression); 9.87 in the data set on human PBMC cells (read-out: IL-8 gene relative expression); 5.65 in the data set on human PBMC cells (read-out: IL-10 gene relative expression); 786 with human PBMC cells (read-out: IL-12p40 gene relative expression); 2.48 in the data set on human PBMC cells (read-out: IL-12p70 gene relative expression); 3.52 with human PBMC cells (read-out: IL-13 gene relative expression). The fold induction at 1 µM with human PBMC cells (read-out: IL-18 gene relative expression) was 1.33; with human PBMC cells (read-out: ISG15 gene relative expression), 14.8; in the data set with human PBMC cells (read-out: MIP1a (CCL3) gene relative expression), 47.7; with human PBMC cells (read-out: MX1 gene relative expression) it was 17; in the data set with human PBMC cells (read-out: OAS1 gene relative expression), 12.7; in the data set on human PBMC cells (read-out: TNF-α gene relative expression), 7.38.
Consider TNF-α [reference compound], for which the “activation of NFκB luciferase reporter gene expression above DMSO control” value with NFκB (10 ng/mL) is roughly 10 fold.
Take `CC1=C[C@H]2[C@@]3(O)[C@H](C)C[C@]4(OC(=O)[C@@H](N)Cc5ccccc5)[C@H]([C@@H]3C=C(CO)C[C@]2(O)C1=O)C4(C)C`: the 50% effective concentration (EC50) in the data set on NFκB (Homo sapiens, HeLa) was 0.2 to 0.6 µM.
Turning to `CC1=C[C@H]2[C@@]3(O)[C@H](C)C[C@]4(OC(=O)C(N)CCCCCCc5ccccc5)[C@H]([C@@H]3C=C(CO)C[C@]2(O)C1=O)C4(C)C` (stereo partly drawn), the EC50 in the data set with NFκB is 0.001 to 0.01 µM. The “IL-2 gene relative expression” value in the data set with human PBMC cells (setting [1]) was 3.59. The figures for the “IL-13 gene relative expression” value in the data set on human PBMC cells (setting [1]) and with human PBMC cells (setting [2]) were 5.87 and 121.59, respectively. Moreover, in the data set with human PBMC cells (setting [1]), the “IL-18 gene relative expression” value stood at 0.19. Besides, the “TNF-α gene relative expression” value in the data set with human PBMC cells (setting [1]) came to 2.91. Moreover, in the data set with human PBMC cells (setting [2]), the “CCL2 gene relative expression” value was determined as 0.40. In addition, in the data set with human PBMC cells (setting [2]), the “GM-CSF gene relative expression” value is recorded as 21.01. The “IFNγ gene relative expression” value with human PBMC cells (setting [2]) is given as 11.33. In addition, the “IL-6 gene relative expression” value in the data set with human PBMC cells (setting [2]) is listed as 6.15. Moreover, in the data set on human PBMC cells (setting [2]), the “IL-10 gene relative expression” value was determined as 0.12. Further, the “MIP1a (CCL3) gene relative expression” value in the data set with human PBMC cells (setting [2]) was 4.95. The fold induction at 0.01 µM with human PBMC cells (read-out: CCL2 gene relative expression, 0.01 μM, 4 h, vs DMSO) was found to be 1.81; in the data set with human PBMC cells (read-out: GM-CSF gene relative expression, 0.01 μM, 4 h, vs DMSO) it was 1; with human PBMC cells (read-out: IFN-α gene relative expression, 0.01 μM, 4 h, vs DMSO), 0.73; with human PBMC cells (read-out: IFNγ gene relative expression, 0.01 μM, 4 h, vs DMSO), 1.46; in the data set on human PBMC cells (read-out: IL-1β gene relative expression, 0.01 μM, 4 h, vs DMSO) it was 0.38; in the data set on human PBMC cells (read-out: IL-2 gene relative expression, 0.01 μM, 4 h, vs DMSO) it was 1.32. Besides, the fold induction at 0.01 µM came out at 0.57 in the data set with human PBMC cells (read-out: IL-6 gene relative expression, 0.01 μM, 4 h, vs DMSO); 0.44 with human PBMC cells (read-out: IL-8 gene relative expression, 0.01 μM, 4 h, vs DMSO); 1.59 with human PBMC cells (read-out: IL-10 gene relative expression, 0.01 μM, 4 h, vs DMSO); 0.34 in the data set on human PBMC cells (read-out: IL-12p40 gene relative expression, 0.01 μM, 4 h, vs DMSO); 1.05 in the data set with human PBMC cells (read-out: IL-12p70 gene relative expression, 0.01 μM, 4 h, vs DMSO); 0.37 in the data set with human PBMC cells (read-out: IL-13 gene relative expression, 0.01 μM, 4 h, vs DMSO). For the same compound, the fold induction at 0.01 µM stood at 0.63 in the data set on human PBMC cells (read-out: IL-18 gene relative expression, 0.01 μM, 4 h, vs DMSO); 0.94 in the data set on human PBMC cells (read-out: ISG15 gene relative expression, 0.01 μM, 4 h, vs DMSO); 1.29 in the data set with human PBMC cells (read-out: MIP1a (CCL3) gene relative expression, 0.01 μM, 4 h, vs DMSO); 0.77 with human PBMC cells (read-out: MX1 gene relative expression, 0.01 μM, 4 h, vs DMSO); 0.85 in the data set on human PBMC cells (read-out: OAS1 gene relative expression, 0.01 μM, 4 h, vs DMSO); 1.34 in the data set with human PBMC cells (read-out: TNF-α gene relative expression, 0.01 μM, 4 h, vs DMSO). Further, the fold induction at 0.03 µM with human PBMC cells (read-out: CCL2 gene relative expression, 0.03 μM, 4 h, vs DMSO) came to 6.53; in the data set with human PBMC cells (read-out: GM-CSF gene relative expression, 0.03 μM, 4 h, vs DMSO), 1.88; with human PBMC cells (read-out: IFN-α gene relative expression, 0.03 μM, 4 h, vs DMSO), 1.21; in the data set on human PBMC cells (read-out: IFNγ gene relative expression, 0.03 μM, 4 h, vs DMSO), 1.49; in the data set with human PBMC cells (read-out: IL-1β gene relative expression, 0.03 μM, 4 h, vs DMSO), 0.94; in the data set on human PBMC cells (read-out: IL-4 gene relative expression, 0.03 μM, 4 h, vs DMSO), 1.19. Besides, the fold induction at 0.03 µM in the data set on human PBMC cells (read-out: IL-6 gene relative expression, 0.03 μM, 4 h, vs DMSO) came out at 1.23; in the data set with human PBMC cells (read-out: IL-8 gene relative expression, 0.03 μM, 4 h, vs DMSO) it was 0.66; in the data set on human PBMC cells (read-out: IL-10 gene relative expression, 0.03 μM, 4 h, vs DMSO) it was 0.86; with human PBMC cells (read-out: IL-12p40 gene relative expression, 0.03 μM, 4 h, vs DMSO), 0.38; in the data set with human PBMC cells (read-out: IL-12p70 gene relative expression, 0.03 μM, 4 h, vs DMSO) it was 0.96; in the data set with human PBMC cells (read-out: ISG15 gene relative expression, 0.03 μM, 4 h, vs DMSO) it was 0.97. Further, the fold induction at 0.03 µM in the data set on human PBMC cells (read-out: MIP1a (CCL3) gene relative expression, 0.03 μM, 4 h, vs DMSO) came to 1.67; with human PBMC cells (read-out: MX1 gene relative expression, 0.03 μM, 4 h, vs DMSO) it was 0.65; in the data set on human PBMC cells (read-out: OAS1 gene relative expression, 0.03 μM, 4 h, vs DMSO) it was 0.55. For the same compound, the fold induction at 0.1 µM in the data set with human PBMC cells (read-out: IFN-α gene relative expression, 0.10 μM, 4 h, vs DMSO) was 0.8; with human PBMC cells (read-out: IL-1β gene relative expression, 0.10 μM, 4 h, vs DMSO) it was 3; with human PBMC cells (read-out: IL-2 gene relative expression, 0.10 μM, 4 h, vs DMSO), 4.98; in the data set on human PBMC cells (read-out: IL-4 gene relative expression, 0.10 μM, 4 h, vs DMSO), 2.78; with human PBMC cells (read-out: IL-8 gene relative expression, 0.10 μM, 4 h, vs DMSO), 0.44; in the data set on human PBMC cells (read-out: IL-12p70 gene relative expression, 0.10 μM, 4 h, vs DMSO) it was 0.74. The fold induction at 0.1 µM in the data set on human PBMC cells (read-out: IL-18 gene relative expression, 0.10 μM, 4 h, vs DMSO) was 0.05; in the data set with human PBMC cells (read-out: ISG15 gene relative expression, 0.10 μM, 4 h, vs DMSO) it was 1.57; in the data set on human PBMC cells (read-out: MX1 gene relative expression, 0.10 μM, 4 h, vs DMSO), 1.06; with human PBMC cells (read-out: OAS1 gene relative expression, 0.10 μM, 4 h, vs DMSO), 0.71; in the data set on human PBMC cells (read-out: TNF-α gene relative expression, 0.10 μM, 4 h, vs DMSO), 6.52.
